Like-named read-outs stand apart in the source and are kept apart here.

This experiment has as its system carrageenan-induced paw edema in male Sprague-Dawley rats. The experiment in a line: Carrageenan-induced paw edema (CPE) model. It is filed as in vivo. The note with it: rat, oral gavage 2 h before carrageenan, paws taken 3 h after, mean of 5 determinations. From the text:
Carrageenans are a group of polysaccharides which can induce an acute inflammatory response in animals. Cardinal signs of inflammation including edema, hyperalgesia and erythema are developed in the injection site immediately following injection. The CPE model is a recognized model of inflammation and can be used to evaluate the anti-inflammatory effects of glucocorticoid receptor ligands.
To evaluate the anti-inflammatory effects of Compound (I), the compound is formulated in a vehicle comprising 0.5% carboxymethyl cellulose and 0.25% Tween 80 then administered orally via gavage to male Sprague-Dawley rats (180-200 g). For comparison, prednisolone may be administered orally in the same vehicle. Two hours later, 1% carrageenan in 50 μl of 0.9% pyrogen free saline is injected into the subplantar regions of the right hind paw. Rats are euthanized by CO2 at 3 hours after the carrageenan injection. Paws are removed then weighed using a microbalance. Paws are then dissected by making several cuts on the paw surface and immediately immersing into liquid nitrogen until frozen. Frozen paws are then centrifuged to extract the exudates. Exudate levels of IL-1β, a cytokine generated during the inflammatory response is then measured by ELISA according to manufacturers instructions. Total paw protein is also measured using a protein assay kit and the absolute level of IL-1β is normalized to yield a concentration value of ng IL-1β/mg total protein.
Background: The carrageenan paw model is a standard test of acute inflammation.

As a reminder, the ED50 is the midpoint of the dose-response relation. As to `C[C@]12C=CC(=O)C=C1CC[C@@H]1[C@@H]2[C@@H](O)C[C@@]2(C)[C@H]1CC[C@]2(O)C(=O)CO` [prednisolone, reference compound], the ED50 (read-out: ED50, inhibition of carrageenan induced paw weight gain) is roughly 6.6 mg/kg and the ED50 (read-out: ED50, reduction of paw exudate levels of IL-1β) was less than 1 mg/kg.

Values taken from patent publication US8101761B2, “(E)-N-{3-[1-(8-fluoro-11H-10-OXA-1-AZA-dibenzo [A,D] cyclohepten-5ylidene)-propyl]-phenyl}-methanesulfonamide as glucocorticoid receptor modulator for the treatment of rheumatoid arthritis” (Eli Lilly and Company, priority 2008, dated 2012).
